PMC6037779, “Repurposing drugs to target the malaria parasite unfolding protein response” (Scientific Reports, 2018)
Like-named read-outs stand apart in the source and are kept apart here. Each block holds one compound with its values, some of them ahead of it.

How the values were obtained:
PfGRP78-NBD wt = molecular target: T1, PfGRP78-NBD wt (Plasmodium falciparum, UniProt Q05866); experiment: biochemical; format: binding
T1 construct: His-tag (pET28-MHL, TEV site) (N, cleaved yes); made in house; host or cells: E. coli BL21(DE3)
Protocol: (§1) To quantify the binding affinities of PfGRP78-NBD for the selected compounds, dissociation constants (Kd) were determined by surface plasmon resonance (SPR). […] Purified PfGRP78-FL, PfGRP78-NBD wild-type and mutant, and human GRP78-NBD were immobilized on a CM5 sensorchip using NHS/EDC coupling following the manufacturer protocol to a level of <10,000 RUs, a reference surfaces without immobilized proteins served as a control for nonspecific binding and refractive index changes. […] The running buffer was 10 mM HEPES, pH 7.4, 150 mM NaCl, 0.005% P20, 1% DMSO and 2 mM MgCl2. Buffer only injections were used as blanks. The Biacore responses recorded during the 30 seconds of the injection were used to estimate the association constant (kon) and the 300 seconds after the injection were used to estimate the dissociation constant (koff). All dissociation and kinetic constants were estimated using double subtracted sensorgrams[40] using BiaEvaluation Software (GE Healthcare). All the reported parasite dissociation constants (Kd) were estimated with affinity analysis, and all the reported human Kds were calculated from kinetic constants.

huGRP78-NBD [1] = molecular target: T2, huGRP78-NBD (Homo sapiens, UniProt P11021); experiment: SPR (Biacore) binding to human GRP78-NBD
T2 construct: PfGRP78-NBD wild type and mutant, and human GRP78-NBD were buffered in 25 mM hepes pH 7.5
Protocol: as §1

PfGRP78-NBD = molecular target: T3, PfGRP78-NBD (Plasmodium falciparum, UniProt Q05866); experiment: DSF thermal shift, PfGRP78-NBD; format: binding; conditions: compound 0.5 mM; shifts above or below 1 °C significant
T3 construct: His-tag (pET28-MHL, TEV site) (N, cleaved yes); made in house; host or cells: E. coli BL21(DE3)
Protocol: The Plasmodium and human GRP78 NBD differences were further characterized by measuring their interaction with ATP, ADP, and several compounds referenced in the literature as GRP78 inhibitors (Fig. 3a). Initially, their binding was determined using a DSF (Differential Scanning Fluorimetry) assay. In this assay, an interaction between the chaperone and a compound was measured as a change in the protein’s melting temperature (Tm), by subtracting the Tm of the protein by itself to the melting value of the protein in the presence of the compound. Differences above or below 1 °C between the melting temperatures (ΔTm) were considered indicative of a protein-compound interaction. As expected, the Plasmodium GRP78 chaperone interacted with both ATP and ADP. Four of the six compounds tested had significant effects on protein thermal stability (Fig. 3b).
DSF screening was carried out using a CFX96 Touch Real-Time PCR Detection System (BioRad, California). The PfGRP78-FL, PfGRP78-NBD wild type and mutant, and human GRP78-NBD were buffered in 25 mM hepes pH 7.5, 250 mM NaCl and assayed in a 96-well format. […]. The concentration was optimized for each protein to avoid saturation of the fluorescence detector. The GRP78 inhibitors were used at a final concentration of 0.5 mM. SYPRO Orange (Life Technologies, USA) was added as a fluorescence probe in a dilution of 1:1000. The experiments were conducted between 18 °C to 90 °C at a heating rate of 1 °C per minute. The recorded fluorescence reads were fitted to the Boltzmann sigmoid function using DMAN software. The inflection point of each fitted curve is defined as the melting temperature (Tm). The observed temperature shift, ΔTm, was recorded as the difference between Tm of the protein with ligand minus Tm of the protein without ligand. Thermal shifts above or below 1 °C were considered significant.

PfGRP78-NBD mut (Y39F) = molecular target: T4, PfGRP78-NBD mut (Y39F) (Plasmodium falciparum, UniProt Q05866, Y39F); experiment: SPR (Biacore) binding to PfGRP78-NBD Y39F mutant; conditions: ± standard error, 25 °C, read-out: affinity constant (Kd) determined by SPR, PfGRP78-NBD mut
T4 construct: His-tag (pET28-MHL, TEV site) (N, cleaved yes); made in house; host or cells: E. coli BL21(DE3)
Protocol: To quantify the binding affinities of PfGRP78-NBD for the selected compounds, dissociation constants (Kd) were determined by surface plasmon resonance (SPR). […] Purified PfGRP78-FL, PfGRP78-NBD wild-type and mutant, and human GRP78-NBD were immobilized on a CM5 sensorchip using NHS/EDC coupling following the manufacturer protocol to a level of <10,000 RUs, a reference surfaces without immobilized proteins served as a control for nonspecific binding and refractive index changes. Seven different concentrations of the ligands between 0.4 nM to 1 mM, were injected in triplicate over the sensor chip at 30 µL/min in random order. The running buffer was 10 mM HEPES, pH 7.4, 150 mM NaCl, 0.005% P20, 1% DMSO and 2 mM MgCl2. Buffer only injections were used as blanks. The Biacore responses recorded during the 30 seconds of the injection were used to estimate the association constant (kon) and the 300 seconds after the injection were used to estimate the dissociation constant (koff). All dissociation and kinetic constants were estimated using double subtracted sensorgrams[40] using BiaEvaluation Software (GE Healthcare). All the reported parasite dissociation constants (Kd) were estimated with affinity analysis, and all the reported human Kds were calculated from kinetic constants.

[2] = system: Plasmodium falciparum 3D7; experiment: In vitro growth inhibition assay (SYBR Green I), strain 3D7; format: cell-based; conditions: read-out: EC50, growth inhibition, P. falciparum 3D7
Protocol: (§2) A major goal of our study was to evaluate the drug target potential of P. falciparum GRP78, thus we evaluated the effect of the chaperone inhibition on the malaria parasite. Our approach took advantage of several GRP78 inhibitors (Fig. 3a) previously characterized against human cancer cell lines, which were commercially available[20],[24]–[27]. These compounds were tested against two different parasite strains with opposite sensitivity towards the antimalarial drug chloroquine, 3D7 (sensitive) and W2 (resistant). […] A synchronized P. falciparum culture, with over 80% ring forms, was used in the growth inhibition assay. Each strain was assayed at 0.5% parasitaemia and 1.5% hematocrit. A 190 µL aliquot of parasite culture was dispensed per well to microplates that were pre-dispensed with the compounds at various dilutions. […] Dilutions of GRP78 inhibitors and DHA were prepared in water with a final concentration of DMSO below 0.05% (v/v). […] After incubation, the plates were subject to a freeze-thaw cycle (−80 °C) and the parasite growth was quantified by the SYBR Green I method as previously described. Briefly, 100 µl of homogenized parasite culture was transferred into 96-well black plates. 100 µl of SYBR Green lysis buffer (2x SYBR Green I, 100 mM Tris-HCl pH 7.5, 10 mM EDTA, 0.016% Saponin and 1.6% Triton X-100) were added to each well. The plates were incubated at room temperature in darkness for 1 hour.
(§3) Growth inhibition experiments were conducted at least three times per compound. […] The statistical analysis was performed with the software Prism 7 (GraphPad Software, San Diego, CA).

Plasmodium falciparum W2 = experiment: In vitro growth inhibition assay (SYBR Green I), strain W2; format: cell-based; conditions: read-out: EC50, growth inhibition, P. falciparum W2
Protocol: as §2, §3

HCT-116 = experiment: Growth inhibition of human cell line; format: cell-based
Protocol: as §3

PfGRP78-FL = molecular target: T5, PfGRP78-FL (Plasmodium falciparum, UniProt Q05866, DEL449-452/N453V/P455G/Q454G/T226A); experiment: DSF thermal shift, PfGRP78 full-length; format: binding; conditions: read-out: ΔTm (DSF), PfGRP78-FL
T5 construct: His-tag (TEV site) (N, cleaved yes); made in house; host or cells: E. coli BL21(DE3); gene synthesized by Life Technologies
Protocol: (§4) Initially, their binding was determined using a DSF (Differential Scanning Fluorimetry) assay. In this assay, an interaction between the chaperone and a compound was measured as a change in the protein’s melting temperature (Tm), by subtracting the Tm of the protein by itself to the melting value of the protein in the presence of the compound. Differences above or below 1 °C between the melting temperatures (ΔTm) were considered indicative of a protein-compound interaction.
(§5) DSF screening was carried out using a CFX96 Touch Real-Time PCR Detection System (BioRad, California). The PfGRP78-FL, PfGRP78-NBD wild type and mutant, and human GRP78-NBD were buffered in 25 mM hepes pH 7.5, 250 mM NaCl and assayed in a 96-well format. The final concentration of the protein sample was optimized between 0.05 and 0.2 mg/ml for each protein. The concentration was optimized for each protein to avoid saturation of the fluorescence detector. The GRP78 inhibitors were used at a final concentration of 0.5 mM. SYPRO Orange (Life Technologies, USA) was added as a fluorescence probe in a dilution of 1:1000.

huGRP78-NBD [3] = molecular target: T2, huGRP78-NBD; experiment: DSF thermal shift, human GRP78-NBD; format: binding; conditions: compound 0.5 mM
Protocol: as §4, §5

[4] = ± standard error, affinity analysis, 25 °C
[5] = ± standard error, calculated from kinetic constants, 25 °C
[6] = Plasmodium falciparum, 3D7, 72 h
[7] = Plasmodium falciparum, W2, 72 h

T2 sequence (P11021 26-407 limits assumed): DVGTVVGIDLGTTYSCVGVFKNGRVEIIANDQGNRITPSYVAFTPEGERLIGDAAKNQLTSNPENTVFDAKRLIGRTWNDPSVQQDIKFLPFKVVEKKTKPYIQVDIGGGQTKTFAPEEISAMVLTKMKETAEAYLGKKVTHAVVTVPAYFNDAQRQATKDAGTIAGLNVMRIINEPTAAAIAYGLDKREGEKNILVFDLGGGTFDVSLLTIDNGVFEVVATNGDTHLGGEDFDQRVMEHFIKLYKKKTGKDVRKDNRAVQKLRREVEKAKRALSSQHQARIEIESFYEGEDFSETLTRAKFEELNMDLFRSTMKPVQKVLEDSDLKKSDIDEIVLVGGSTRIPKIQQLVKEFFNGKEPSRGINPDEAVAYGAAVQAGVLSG

SMILES: CCN(CC)c1ncnc2c1ncn2[C@H]1O[C@@H](COP(=O)(O)OP(=O)(O)C(Br)(Br)P(=O)(O)O)[C@H](O)[C@@H]1O [ARL-67156]
affinity constant (Kd) determined by SPR, PfGRP78-NBD wt (PfGRP78-NBD wt; [4]): N.B. | affinity constant (Kd) determined by SPR, huGRP78-NBD (huGRP78-NBD [1]; [5]): N.B. | DSF effect on thermal stability of PfGRP78-NBD (PfGRP78-NBD): non-binders

SMILES: Nc1ncnc2c1ncn2[C@@H]1O[C@H](COP(=O)(O)OP(=O)(O)OP(=O)(O)O)[C@@H](O)[C@H]1O [ATP]
fold decrease in affinity of malaria chaperone compared to the human counterpart (PfGRP78-NBD wt; SPR Kd, PfGRP78-NBD vs huGRP78-NBD): 23 fold | Kd (PfGRP78-NBD wt; ± standard error, affinity analysis, 25 °C, read-out: affinity constant (Kd) determined by SPR, PfGRP78-NBD wt): 333000 ± 74000 nM | Kd (PfGRP78-NBD mut (Y39F)): 312000 ± 15000 nM | Kd (huGRP78-NBD [1]; ± standard error, calculated from kinetic constants, 25 °C, read-out: affinity constant (Kd) determined by SPR, huGRP78-NBD): 14000 ± 7000 nM | DSF effect on thermal stability of PfGRP78-NBD (PfGRP78-NBD): interacted

SMILES: CCN(CC)CCCC(C)Nc1ccnc2cc(Cl)ccc12 (centres unmarked) [CQ, chloroquine]
EC50 [2, 6]: 50 ± 11 nM | EC50 (Plasmodium falciparum W2; [7]): 230 ± 30 nM

EC50 ([2]; chloroquine-sensitive strain, 72 hours, average of three ± SD): 0.4 ± 0.07 nM | EC50 (Plasmodium falciparum W2; chloroquine-resistant strain, 72 hours, average of three ± SD): 0.1 ± 0.02 nM
SMILES: C[C@H]1[C@@H](O)O[C@@H]2O[C@@]3(C)CC[C@H]4[C@H](C)CC[C@@H]1[C@@]24OO3 [DHA]

SMILES: CN(NC(=O)CC(=O)NN(C)C(=S)c1ccccc1)C(=S)c1ccccc1 [Elesclomol]
affinity constant (Kd) determined by SPR, PfGRP78-NBD wt (PfGRP78-NBD wt; [4]): N.B. | affinity constant (Kd) determined by SPR, huGRP78-NBD (huGRP78-NBD [1]; [5]): N.B. | EC50 ([2]; Plasmodium falciparum, 3D7, chloroquine-sensitive strain, 72 hours, average of three ± SD): 50 ± 17 nM | EC50 (Plasmodium falciparum W2; Plasmodium falciparum, W2, chloroquine-resistant strain, 72 hours, average of three ± SD): 60 ± 10 nM | DSF effect on thermal stability of PfGRP78-NBD (PfGRP78-NBD): non-binders

SMILES: C=Cc1cc(OC)c2c(c1)c(=O)oc1c2cc(OC)c2c(O)ccc(C3OC(C(C)O)C(O)C3O)c21 (centres unmarked) [Gilvocarcin V]
affinity constant (Kd) determined by SPR, PfGRP78-NBD wt (PfGRP78-NBD wt; [4]): N.B. | affinity constant (Kd) determined by SPR, PfGRP78-NBD wt (PfGRP78-NBD wt; ± standard error, affinity analysis, 25 °C, listed as Gilvocarcin A): too weak to accurately determine its dissociation constant | affinity constant (Kd) determined by SPR, huGRP78-NBD (huGRP78-NBD [1]; [5]): N.B. | affinity constant (Kd) determined by SPR, huGRP78-NBD (huGRP78-NBD [1]; ± standard error, calculated from kinetic constants, 25 °C, listed as Gilvocarcin A): too weak to accurately determine its dissociation constant | EC50 [2, 6]: 20 ± 4 nM | EC50 (Plasmodium falciparum W2; [7]): 80 ± 40 nM | DSF effect on thermal stability of PfGRP78-NBD (PfGRP78-NBD): increased the thermal stability

SMILES: CCn1c(=O)/c(=C2\Sc3ccccc3N2C)s/c1=C\c1cccc[n+]1CC [MKT-077]
Kd (PfGRP78-NBD wt): 16400 ± 1700 nM | Kd (huGRP78-NBD [1]): 16000 ± 170 nM | EC50 [2, 6]: 70 ± 20 nM | EC50 (Plasmodium falciparum W2; [7]): 70 ± 30 nM | times more selective towards P. falciparum (HCT-116; HCT-116 vs P. falciparum EC50, Results text b30): 14 times | EC50 (HCT-116; Homo sapiens, HCT-116, read-out: EC50, growth inhibition, HCT-116): 980 ± 230 nM | ΔTm at 500 µM (PfGRP78-FL): 0.6 °C | DSF effect on thermal stability of PfGRP78-NBD (PfGRP78-NBD): significant thermal destabilization | DSF effect on thermal stability of human GRP78-NBD (huGRP78-NBD [3]): destabilized

SMILES: N#Cc1ccc(COCC2OC(n3c(NCc4ccc(Cl)c(Cl)c4)nc4c(N)ncnc43)C(O)C2O)cc1 (centres unmarked) [VER-155008]
Kd (PfGRP78-NBD wt): 164000 ± 13600 nM | EC50 [2, 6]: 82100 ± 49700 nM | EC50 (Plasmodium falciparum W2; [7]): 39500 nM | EC50 (HCT-116; HCT-116, human cell line, average of three ± SD, read-out: EC50, growth inhibition, HCT-116): 15710 ± 70 nM | DSF effect on thermal stability of PfGRP78-NBD (PfGRP78-NBD): increased the thermal stability
